Literature values, collected in patent US8329435B2, “Methods for improved uptake of biological molecules” (American Symbolic, LLC, priority 2007, dated 2012).

Settings: unmodified glutathione

half-life of glutathione in the blood (blood): around 120 seconds
half-life in the blood stream (blood stream): about a minute and a half
Structure (SMILES): N[C@@H](CCC(=O)N[C@@H](CS)C(=O)NCC(=O)O)C(=O)O [glutathione]
